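At the GI50, growth is halved. TGI denotes the concentration required for complete inhibition of growth.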
Tests used:
Test in all cases: growth of human tumour cells (NCI), 384-well format
SF-295 CNS = system: SF-295 CNS
SK-OV-3 ovarian = system: SK-OV-3 ovarian
SF-268 CNS = system: SF-268 CNS
OVCAR-3 ovarian = system: OVCAR-3 ovarian
786-0 renal = system: 786-0 renal
UACC-257 melanoma = system: UACC-257 melanoma
T-47D breast = system: T-47D breast
M14 melanoma = system: M14 melanoma
EKVX NSCLC = system: EKVX NSCLC
OVCAR-8 ovarian = system: OVCAR-8 ovarian
HT29 colon = system: HT29 colon
SF-539 CNS = system: SF-539 CNS
SN12C renal = system: SN12C renal
NCI-H460 NSCLC = system: NCI-H460 NSCLC
OVCAR-4 ovarian = system: OVCAR-4 ovarian
RPMI-8226 leukemia = system: RPMI-8226 leukemia
MDA-MB-231 breast = system: MDA-MB-231 breast
CCRF-CEM leukemia = system: CCRF-CEM leukemia
SK-MEL-2 melanoma = system: SK-MEL-2 melanoma
SNB-19 CNS = system: SNB-19 CNS
NCI-H322M lung = system: NCI-H322M lung
NCI-H522 lung = system: NCI-H522 lung
BT-549 breast = system: BT-549 breast
MOLT-4 leukemia = system: MOLT-4 leukemia
NCI-H226 lung = system: NCI-H226 lung
SK-MEL-28 melanoma = system: SK-MEL-28 melanoma
HCC-2998 colon = system: HCC-2998 colon
SR leukemia = system: SR leukemia

O=C(O)C(=O)CBr
GI50 (SF-295 CNS): > 100 µM
TGI (SF-295 CNS): > 100 µM
GI50 (SK-OV-3 ovarian): > 100 µM
TGI (SK-OV-3 ovarian): > 100 µM
GI50 (SF-268 CNS): > 100 µM
TGI (SF-268 CNS): > 100 µM
GI50 (OVCAR-3 ovarian): > 100 µM
TGI (OVCAR-3 ovarian): > 100 µM
GI50 (786-0 renal): > 100 µM
TGI (786-0 renal): > 100 µM
GI50 (UACC-257 melanoma): > 100 µM
TGI (UACC-257 melanoma): > 100 µM
GI50 (T-47D breast): > 100 µM
TGI (T-47D breast): > 100 µM
GI50 (M14 melanoma): > 100 µM
TGI (M14 melanoma): > 100 µM
GI50 (EKVX NSCLC): > 100 µM
TGI (EKVX NSCLC): > 100 µM
GI50 (OVCAR-8 ovarian): > 100 µM
TGI (OVCAR-8 ovarian): > 100 µM
GI50 (HT29 colon): > 100 µM
TGI (HT29 colon): > 100 µM
GI50 (SF-539 CNS): > 100 µM
TGI (SF-539 CNS): > 100 µM
GI50 (SN12C renal): > 100 µM
TGI (SN12C renal): > 100 µM
GI50 (NCI-H460 NSCLC): > 100 µM
TGI (NCI-H460 NSCLC): > 100 µM
GI50 (OVCAR-4 ovarian): 32.3 µM
TGI (OVCAR-4 ovarian): > 100 µM
GI50 (RPMI-8226 leukemia): > 100 µM
TGI (RPMI-8226 leukemia): > 100 µM
GI50 (MDA-MB-231 breast): > 100 µM
TGI (MDA-MB-231 breast): > 100 µM
GI50 (CCRF-CEM leukemia): 43.2 µM
TGI (CCRF-CEM leukemia): > 100 µM
GI50 (SK-MEL-2 melanoma): > 100 µM
TGI (SK-MEL-2 melanoma): > 100 µM
GI50 (SNB-19 CNS): > 100 µM
TGI (SNB-19 CNS): > 100 µM
GI50 (NCI-H322M lung): > 100 µM
TGI (NCI-H322M lung): > 100 µM
GI50 (NCI-H522 lung): 23.5 µM
TGI (NCI-H522 lung): 47.8 µM
GI50 (BT-549 breast): > 100 µM
TGI (BT-549 breast): > 100 µM
GI50 (MOLT-4 leukemia): > 100 µM
TGI (MOLT-4 leukemia): > 100 µM
GI50 (NCI-H226 lung): > 100 µM
TGI (NCI-H226 lung): > 100 µM
GI50 (SK-MEL-28 melanoma): > 100 µM
TGI (SK-MEL-28 melanoma): > 100 µM
GI50 (HCC-2998 colon): > 100 µM
TGI (HCC-2998 colon): > 100 µM
GI50 (SR leukemia): > 100 µM

Reference: PubChem BioAssay (NCI)
